Measured values taken from patent EP4563146A1 (IRBM S.P.A., priority 2023, dated 2025).
Like-named read-outs stand apart in the source and are kept apart here.

Columns and labels:
ZIKV replicon = assay: ZIKV replication inhibition assay (NanoLuc replicon in Vero cells); conditions: 72 h
[1] = target: T1, West Nile Virus (WNV) NS2B-NS3 protease (West Nile virus, UniProt Q9Q6P4); assay: WNV protease inhibition assay; format: biochemical; conditions: Table 4; letter codes for IC50
T1 construct: NS2B1423-1470); purchased R&D 2907-SE-020
T1 sequence (Q9Q6P4 1423-1470): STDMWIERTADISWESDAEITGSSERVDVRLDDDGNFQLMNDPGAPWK
T1 sequence (Q9Q6P4 1506-1689): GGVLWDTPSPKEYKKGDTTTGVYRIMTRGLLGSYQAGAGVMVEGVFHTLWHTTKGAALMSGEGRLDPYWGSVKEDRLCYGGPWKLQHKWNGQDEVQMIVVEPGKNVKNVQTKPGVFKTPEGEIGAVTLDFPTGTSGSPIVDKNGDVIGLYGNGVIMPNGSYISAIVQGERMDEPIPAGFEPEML
Source text: WNV protease inhibition assay

[2] = Zika virus, Vero, read-out: ZIKA Cell_Nanoluc, Vero cells with stable ZIKV replicon, 72 h, Nano-Glo readout
[3] = Zika virus, Vero, read-out: ZIKA Cell_Nanoluc
[4] = read-out: ZIKA Cell_Nanoluc, Vero cells with stable ZIKV replicon, Nano-Glo readout

Compound | EC50 (ZIKV replicon; [2]) [µM] | IC50 [1] [µM] | EC50 (ZIKV replicon; [3]) [µM] | EC50 (ZIKV replicon; [4]) [µM]
Cc1ncnc(C)c1-c1ccc(C[n+]2cc([N-]C(=O)N[C@H]3CC[C@@]4(C3)CC4(F)F)on2)nc1 (racemic) [Example 180, rac-(((3R,5S)-1,1-Difluorospiro[2.4]heptan-5-yl)carbamoyl)(3-((5-(4,6-dimethylpyrimidin-5-yl)pyridin-2-yl)methyl)-1,2,3-oxadiazol-3-ium-5-yl)amide] | 1 to 20 | 1 to 20 |  | 
CN1CCc2ccccc2C1C[n+]1cc([N-]C(=O)Nc2ccnc(C(F)(F)F)c2)on1 (racemic) [Example 181, rac-(3-((2-Methyl-1,2,3,4-tetrahydroisoquinolin-1-yl)methyl)-1,2,3-oxadiazol-3-ium-5-yl)((2-(trifluoromethyl)pyridin-4-yl)carbamoyl)amide] | 0.1 to 1 | < 0.1 |  | 
CN1CCc2ccccc2C1C[n+]1cc([N-]C(=O)Nc2cc(NC(=O)Cc3ccccc3)cc(C(F)(F)F)c2)on1 (racemic) [Example 192, rac-(3-((2-Methyl-1,2,3,4-tetrahydroisoquinolin-1-yl)methyl)-1,2,3-oxadiazol-3-ium-5-yl)((3-(2-phenylacetamido)-5-(trifluoromethyl)phenyl)carbamoyl)amide] | 0.1 to 1 | 0.1 to 1 |  | 
O=C([N-]c1c[n+](CC2CCCc3ccccc32)no1)Nc1ccnc(C(F)(F)F)c1 (racemic) [Example 200, Rac-(3-((1,2,3,4-Tetrahydronaphthalen-1-yl)methyl)-1,2,3-oxadiazol-3-ium-5-yl)((2-(trifluoromethyl)pyridin-4-yl)carbamoyl)amide] | 0.1 to 1 | 0.1 to 1 |  | 
Cc1ccccc1CC(=O)Nc1cc(NC(=O)[N-]c2c[n+]([C@@H]3CCCC[C@@H]3N(C)C)no2)cc(C(F)(F)F)c1 (racemic) [Example 244, rac-(3-((1R,2S)-2-(Dimethylamino)cyclohexyl)-1,2,3-oxadiazol-3-ium-5-yl)((3-(2-(o-tolyl)acetamido)-5-(trifluoromethyl)phenyl)-carbamoyl)amide] | 1 to 20 | 0.1 to 1 |  | 
CNC(=O)[C@H]1CCC[C@@H]([n+]2cc([N-]C(=O)Nc3cc(NC(=O)Cc4ccccc4C)cc(C(F)(F)F)c3)on2)C1 (racemic) [Example 245, rac-(3-((1R,3S)-3-(Methylcarbamoyl)cyclohexyl)-1,2,3-oxadiazol-3-ium-5-yl)((3-(2-(o-tolyl)acetamido)-5-(trifluoromethyl)phenyl)carbamoyl)amide] | 1 to 20 | 0.1 to 1 |  | 
CNC(=O)[C@@H]1CCC[C@@H]([n+]2cc([N-]C(=O)Nc3cc(NC(=O)Cc4ccccc4C)cc(C(F)(F)F)c3)on2)C1 (racemic) [Example 252, rac-(3-((1R,3R)-3-(Methylcarbamoyl)-cyclohexyl)-1,2,3-oxadiazol-3-ium-5-yl)((3-(2-(o-tolyl)-acetamido)-5-(trifluoromethyl)phenyl)-carbamoyl)amide] | 1 to 20 | 0.1 to 1 |  | 
Cc1ccccc1CC(=O)Nc1cc(NC(=O)[N-]c2c[n+]([C@@H]3CCC[C@H](C(=O)N(C)C)C3)no2)cc(C(F)(F)F)c1 (racemic) [Example 253, rac-(3-((1R,3S)-3-(Dimethylcarbamoyl)-cyclohexyl)-1,2,3-oxadiazol-3-ium-5-yl)((3-(2-(o-tolyl)-acetamido)-5-(trifluoromethyl)phenyl)-carbamoyl)amide] | 1 to 20 | 0.1 to 1 |  | 
Cc1ncnc(C)c1-c1ccc(C[n+]2cc([N-]C(=O)N[C@@H]3CC[C@@H](C(F)(F)F)C3)on2)cc1 (racemic) [Example 256, (3-((4-(4,6-Dimethylpyrimidin-5-yl)phenyl)methyl)oxadiazol-3-ium-5-yl)-((rac-(1R,3R)-3-(trifluoromethyl)cyclopentyl)-carbamoyl)azanide] |  | 0.1 to 1 | 1 to 20 | 
CN(C)C[C@H]1CC[C@H]([n+]2cc([N-]C(=O)Nc3cc(NC(=O)[C@@H](F)c4ccccc4F)cc(C(F)(F)F)c3)on2)CC1 (single isomer, unassigned) [Example 243] |  | < 0.1 | 0.1 to 1 | 
CN(C)C[C@H]1CC[C@H]([n+]2cc([N-]C(=O)Nc3cc(NC(=O)[C@H](F)c4ccccc4F)cc(C(F)(F)F)c3)on2)CC1 (single isomer, unassigned) [Example 271] |  | < 0.1 | 0.1 to 1 | 
Cc1ccccc1CC(=O)Nc1cc(NC(=O)[N-]c2c[n+]([C@H]3CCC[C@@H](CN(C)C)C3)no2)cc(C(F)(F)F)c1 (stereo in doubt) [Example 246, rac-(3-((1S,3R)-3-((Dimethylamino)methyl)-cyclohexyl)-1,2,3-oxadiazol-3-ium-5-yl)((3-(2-(o-tolyl)acetamido)-5-(trifluoromethyl)phenyl)-carbamoyl)amide] | 1 to 20 | < 0.1 |  | 
Cc1ccccc1CC(=O)Nc1cc(NC(=O)[N-]c2c[n+]([C@@H]3CCC[C@H](CN(C)C)C3)no2)cc(C(F)(F)F)c1 (stereo in doubt) [Example 247, rac-(3-((1R,3S)-3-((Dimethylamino)methyl)-cyclohexyl)-1,2,3-oxadiazol-3-ium-5-yl)((3-(2-(o-tolyl)acetamido)-5-(trifluoromethyl)phenyl)-carbamoyl)amide] | 1 to 20 | 0.1 to 1 |  | 
COc1ncc(-c2ccc(C[n+]3cc([N-]C(=O)Nc4cc(NC(=O)Cc5ccccc5)cc(C(F)(F)F)c4)on3)cc2)c(C)n1 [Example 1, (3-(4-(2-Methoxy-4-methylpyrimidin-5-yl)benzyl)-1,2,3-oxadiazol-3-ium-5-yl)((3-(2-phenylacetamido)-5-(trifluoromethyl)phenyl)carbamoyl)amide] | 1 to 20 | 1 to 20 |  | 
CN(C)C[C@H]1CC[C@H]([n+]2cc([N-]C(=O)Nc3cc(N4CCC(c5ccccc5)C4=O)cc(C(F)(F)F)c3)on2)CC1 (stereo partly drawn) [Example 148, (3-((1R,4R)-4-((Dimethylamino)methyl)-cyclohexyl)-1,2,3-oxadiazol-3-ium-5-yl)((3-(2-oxo-3-phenylpyrrolidin-1-yl)-5-(trifluoromethyl)-phenyl)carbamoyl)amide] |  | 0.1 to 1 | 1 to 20 | 
CN(C)C[C@H]1CC[C@H]([n+]2cc([N-]C(=O)Nc3cc(NC(=O)CS(=O)(=O)c4ccccc4)cc(C(F)(F)F)c3)on2)CC1 [Example 151, (3-((1R,4R)-4-((Dimethylamino)methyl)-cyclohexyl)-1,2,3-oxadiazol-3-ium-5-yl)((3-(2-(phenylsulfonyl)acetamido)-5-(trifluoromethyl)phenyl)carbamoyl)amide] |  | 0.1 to 1 |  | 1 to 20
COc1ccccc1CC(=O)Nc1cc(NC(=O)[N-]c2c[n+](C3CCC(CN(C)C)CC3)no2)cc(C(F)(F)F)c1 [Example 153, (3-((1R,4R)-4-((Dimethylamino)methyl)-cyclohexyl)-1,2,3-oxadiazol-3-ium-5-yl)((3-(2-(2-methoxyphenyl)acetamido)-5-(trifluoromethyl)-phenyl)carbamoyl)amide] |  | 0.1 to 1 |  | 1 to 20
CN(C)C[C@H]1CC[C@H]([n+]2cc([N-]C(=O)Nc3cc(NC(=O)Cc4ccc(C(=O)O)cc4)cc(C(F)(F)F)c3)on2)CC1 [Example 156, ((3-(2-(4-Carboxyphenyl)acetamido)-5-(trifluoromethyl)phenyl)carbamoyl)(3-((1R,4R)-4-((dimethylamino)methyl)cyclohexyl)-1,2,3-oxadiazol-3-ium-5-yl)amide] |  | 1 to 20 |  | 1 to 20
CN(C)C[C@H]1CC[C@H]([n+]2cc([N-]C(=O)Nc3cc(NC(=O)CCc4cn(C)c5ccccc45)cc(C(F)(F)F)c3)on2)CC1 [Example 157, (3-((1R,4R)-4-((Dimethylamino)methyl)-cyclohexyl)-1,2,3-oxadiazol-3-ium-5-yl)((3-(3-(1-methyl-1H-indol-3-yl)propanamido)-5-(trifluoromethyl)phenyl)carbamoyl)amide] |  | < 0.1 |  | 1 to 20
CN(C)CC1CCC([n+]2cc([N-]C(=O)Nc3cc(NC(=O)CCc4cnccn4)cc(C(F)(F)F)c3)on2)CC1 [Example 158, (3-((1R,4R)-4-((Dimethylamino)methyl)-cyclohexyl)-1,2,3-oxadiazol-3-ium-5-yl)((3-(3-(pyrazin-2-yl)propanamido)-5-(trifluoromethyl-)phenyl)carbamoyl)amide] |  | 1 to 20 |  | > 20
CN(C)CC1CCC([n+]2cc([N-]C(=O)Nc3cc(NC(=O)Cc4ccccc4C(=O)O)cc(C(F)(F)F)c3)on2)CC1 [Example 159, ((3-(2-(2-Carboxyphenyl)acetamido)-5-(trifluoromethyl)phenyl)carbamoyl)(3-((1R,4R)-4-((dimethylamino)methyl)cyclohexyl)-1,2,3-oxadiazol-3-ium-5-yl)amide] |  | < 0.1 |  | 1 to 20
CN(C)C[C@H]1CC[C@H]([n+]2cc([N-]C(=O)Nc3cc(NC(=O)C(F)(F)CN4CCCC4)cc(C(F)(F)F)c3)on2)CC1 [Example 160, ((3-(2,2-Difluoro-3-(pyrrolidin-1-yl)propanamido)-5-(trifluoromethyl)phenyl)-carbamoyl)(3-((1R,4R)-4-((dimethylamino)-methyl)cyclohexyl)-1,2,3-oxadiazol-3-ium-5-yl)amide] |  | 1 to 20 | > 20 | 
CN(C)C[C@H]1CC[C@H]([n+]2cc([N-]C(=O)Nc3cc(NC(=O)Cc4cn(C)c5ccccc45)cc(C(F)(F)F)c3)on2)CC1 [Example 161, (3-((1R,4R)-4-((dimethylamino)methyl)-cyclohexyl)-1,2,3-oxadiazol-3-ium-5-yl)((3-(2-(1-methyl-1H-indol-3-yl)acetamido)-5-(trifluoromethyl)phenyl)carbamoyl)amide] |  | 0.1 to 1 | 1 to 20 | 
CN(C)C[C@H]1CC[C@H]([n+]2cc([N-]C(=O)Nc3cc(NC(=O)Cc4cccc(CC(N)=O)c4)cc(C(F)(F)F)c3)on2)CC1 [Example 162, ((3-(2-(3-(2-Amino-2-oxoethyl)phenyl)-acetamido)-5-(trifluoromethyl)phenyl)-carbamoyl)(3-((1R,4R)-4-((dimethylamino)-methyl)cyclohexyl)-1,2,3-oxadiazol-3-ium-5-yl)amide] |  | 0.1 to 1 | 1 to 20 | 
